# Assay results reported in US20260365647A1, “AKT1 MODULATORS” (Alterome Therapeutics, Inc., priority 2022, published 2026).
# Biological target: T1, AKT1-E17K (Homo sapiens, UniProt P31749, E17K)
# T1 construct: host or cells: HEK-293 (ATCC CRL-1573)
# Assay: NanoBRET Target Engagement (TE) Assay
# Assay type: cell-based
# Procedure, shortened: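 Live cells transiently expressing NanoLuc-AKT1 E17K fusion, incubated 2 h with tracer and compound before substrate plus extracellular NanoLuc inhibitor were added. BRET read at 450/600 nm; EC50 from variable-slope sigmoidal fit of tracer displacement.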
# T1 sequence (P31749 whole entry E17K): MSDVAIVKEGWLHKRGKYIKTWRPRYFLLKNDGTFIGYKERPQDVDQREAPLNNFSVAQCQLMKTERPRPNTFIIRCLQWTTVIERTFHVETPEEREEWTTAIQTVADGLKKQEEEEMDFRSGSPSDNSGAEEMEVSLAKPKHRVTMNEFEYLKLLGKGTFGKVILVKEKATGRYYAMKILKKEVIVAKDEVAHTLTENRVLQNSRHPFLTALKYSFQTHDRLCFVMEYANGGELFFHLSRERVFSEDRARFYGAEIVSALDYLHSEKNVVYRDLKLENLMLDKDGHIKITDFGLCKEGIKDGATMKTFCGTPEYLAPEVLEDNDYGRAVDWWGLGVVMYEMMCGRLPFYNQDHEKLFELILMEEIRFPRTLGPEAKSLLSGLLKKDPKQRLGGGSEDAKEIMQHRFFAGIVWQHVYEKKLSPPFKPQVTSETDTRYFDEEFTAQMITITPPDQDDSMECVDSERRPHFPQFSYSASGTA
row,SMILES,IC50
1,"Nc1ncccc1-c1nc2ccc(-c3ccccc3)nc2n1-c1ccc(CN2CCN(c3ccc(C=O)c(O)c3)C3(CC3)C2)cc1 [Example 108, 4-(7-(4-(2-(2-Aminopyridin-3-yl)-5-phenyl-3H-imidazo[4,5-b]pyridin-3-yl)benzyl)-4,7-diazaspiro[2.5]octan-4-yl)-2-hydroxybenzaldehyde]",60 to 600 nM
2,"Nc1ncccc1-c1nc2ccc(-c3ccccc3)nc2n1-c1ccc(CN2CCCC(NC(=O)c3ccc(O)c(C=O)c3)CC2)cc1 (centres unmarked) [Example 115, N-(1-(4-(2-(2-Aminopyridin-3-yl)-5-phenyl-3H-imidazo[4,5-b]pyridin-3-yl)benzyl)azepan-4-yl)-3-formyl-4-hydroxybenzamide]",15 to 60 nM
3,"Nc1ncccc1-c1nc2ccc(-c3ccccc3)nc2n1-c1ccc(CN2CCCC(NC(=O)c3ccc(C=O)c(O)c3)CC2)cc1 (centres unmarked) [Example 116, N-(1-(4-(2-(2-aminopyridin-3-yl)-5-phenyl-3H-imidazo[4,5-b]pyridin-3-yl)benzyl)azepan-4-yl)-4-formyl-3-hydroxybenzamide]",60 to 600 nM
4,"Nc1ncccc1-c1nc2ccc(-c3ccccc3)nc2n1-c1ccc(CN2CCCCC(NC(=O)c3ccc(O)c(C=O)c3)C2)cc1 (centres unmarked) [Example 117, N-(1-(4-(2-(2-Aminopyridin-3-yl)-5-phenyl-3H-imidazo[4,5-b]pyridin-3-yl)benzyl)azepan-3-yl)-3-formyl-4-hydroxybenzamide]",> 600 nM
5,"Nc1ncccc1-c1nc2ccc(-c3ccccc3)nc2n1-c1ccc(CN2CCCCC(NC(=O)c3ccc(C=O)c(O)c3)C2)cc1 (centres unmarked) [Example 118, N-(1-(4-(2-(2-Aminopyridin-3-yl)-5-phenyl-3H-imidazo[4,5-b]pyridin-3-yl)benzyl)azepan-3-yl)-4-formyl-3-hydroxybenzamide]",> 600 nM
6,"Nc1ncccc1-c1nc2ccc(-c3ccccc3)nc2n1-c1ccc(CN2CCCN(C(=O)c3ccc(O)c(C=O)c3)CC2)cc1 [Example 119, 5-(4-(4-(2-(2-Aminopyridin-3-yl)-5-phenyl-3H-imidazo[4,5-b]pyridin-3-yl)benzyl)-1,4-diazepane-1-carbonyl)-2-hydroxybenzaldehyde]",15 to 60 nM
7,"Nc1ncccc1-c1nc2ccc(-c3ccccc3)nc2n1-c1ccc(CN2CCCN(c3ccc(C=O)c(O)c3)CC2)cc1 [Example 120, 4-(4-(4-(2-(2-Aminopyridin-3-yl)-5-phenyl-3H-imidazo[4,5-b]pyridin-3-yl)benzyl)-1,4-diazepan-1-yl)-2-hydroxybenzaldehyde]",15 to 60 nM
8,"Nc1ncccc1-c1nc2ccc(-c3ccccc3)nc2n1-c1ccc(CN2C[C@@H]3C[C@H]2CN3C(=O)c2ccc(O)c(C=O)c2)cc1 [Example 121, 5-((1S,4S)-5-(4-(2-(2-Aminopyridin-3-yl)-5-phenyl-3H-imidazo[4,5-b]pyridin-3-yl)benzyl)-2,5-diazabicyclo[2.2.1]heptane-2-carbonyl)-2-hydroxybenzaldehyde]",60 to 600 nM
9,"Nc1ncccc1-c1nc2ccc(-c3ccccc3)nc2n1-c1ccc(CN2C[C@@H]3C[C@H]2CN3c2ccc(C=O)c(O)c2)cc1 [Example 123, 4-((1S,4S)-5-(4-(2-(2-Aminopyridin-3-yl)-5-phenyl-3H-imidazo[4,5-b]pyridin-3-yl)benzyl)-2,5-diazabicyclo[2.2.1]heptan-2-yl)-2-hydroxybenzaldehyde]",60 to 600 nM
10,"Nc1ncccc1-c1nc2ccc(-c3ccccc3)nc2n1-c1ccc(CN2C[C@H]3C[C@@H]2CN3c2ccc(C=O)c(O)c2)cc1 [Example 124, 4-((1R,4R)-5-(4-(2-(2-Aminopyridin-3-yl)-5-phenyl-3H-imidazo[4,5-b]pyridin-3-yl)benzyl)-2,5-diazabicyclo[2.2.1]heptan-2-yl)-2-hydroxybenzaldehyde]",15 to 60 nM
11,"Nc1ncccc1-c1nc2ccc(-c3ccccc3)nc2n1-c1ccc(CN2CCC(Oc3cccc(O)c3C=O)CC2)cc1 [Example 128, 2-((1-(4-(2-(2-Aminopyridin-3-yl)-5-phenyl-3H-imidazo[4,5-b]pyridin-3-yl)benzyl)piperidin-4-yl)oxy)-6-hydroxybenzaldehyde]",60 to 600 nM
12,"Nc1ncccc1-c1nc2ccc(-c3ccccc3)nc2n1-c1ccc(CN2CCC(Oc3ccc(C=O)c(O)c3)CC2)cc1 [Example 129, 4-((1-(4-(2-(2-Aminopyridin-3-yl)-5-phenyl-3H-imidazo[4,5-b]pyridin-3-yl)benzyl)piperidin-4-yl)oxy)-2-hydroxybenzaldehyde]",15 to 60 nM
13,"Nc1ncccc1-c1nc2ccc(-c3ccccc3)nc2n1-c1ccc(CN2CCC(Oc3ccc(O)c(C=O)c3)CC2)cc1 [Example 130, 5-((1-(4-(2-(2-Aminopyridin-3-yl)-5-phenyl-3H-imidazo[4,5-b]pyridin-3-yl)benzyl)piperidin-4-yl)oxy)-2-hydroxybenzaldehyde]",60 to 600 nM
14,"Nc1ncccc1-c1nc2ccc(-c3ccccc3)nc2n1-c1ccc(CN2C[C@@H]3CN(c4ccc(C=O)c(O)c4)C[C@@H]3C2)cc1 [Example 133, 4-((3aR,6aS)-5-(4-(2-(2-Aminopyridin-3-yl)-5-phenyl-3H-imidazo[4,5-b]pyridin-3-yl)benzyl)hexahydropyrrolo[3,4-c]pyrrol-2(1H)-yl)-2-hydroxybenzaldehyde]",60 to 600 nM

# Other lines, results leading:
row,IC50,SMILES
1,> 600 nM,"Nc1ncccc1-c1nc2ccc(-c3ccccc3)nc2n1-c1ccc(CN2CC3CCC(C2)N3C(=O)c2ccc(C=O)c(O)c2)cc1 [Example 109, 4-(3-(4-(2-(2-Aminopyridin-3-yl)-5-phenyl-3H-imidazo[4,5-b]pyridin-3-yl)benzyl)-3,8-diazabicyclo[3.2.1]octane-8-carbonyl)-2-hydroxybenzaldehyde]"
2,> 600 nM,"Nc1ncccc1-c1nc2ccc(-c3ccccc3)nc2n1-c1ccc(CN2CC3CCC(C2)N3C(=O)c2ccc(O)c(C=O)c2)cc1 [Example 110, 5-(3-(4-(2-(2-Aminopyridin-3-yl)-5-phenyl-3H-imidazo[4,5-b]pyridin-3-yl)benzyl)-3,8-diazabicyclo[3.2.1]octane-8-carbonyl)-2-hydroxybenzaldehyde]"
3,> 600 nM,"Nc1ncccc1-c1nc2ccc(-c3ccccc3)nc2n1-c1ccc(CN2CC3CCC(C2)N3c2ccc(C=O)c(O)c2)cc1 [Example 111, 4-(3-(4-(2-(2-Aminopyridin-3-yl)-5-phenyl-3H-imidazo[4,5-b]pyridin-3-yl)benzyl)-3,8-diazabicyclo[3.2.1]octan-8-yl)-2-hydroxybenzaldehyde]"
4,> 600 nM,"Nc1ncccc1-c1nc2ccc(-c3ccccc3)nc2n1-c1ccc(CN2C3CCC2CN(C(=O)c2ccc(O)c(C=O)c2)C3)cc1 [Example 112, 5-(8-(4-(2-(2-Aminopyridin-3-yl)-5-phenyl-3H-imidazo[4,5-b]pyridin-3-yl)benzyl)-3,8-diazabicyclo[3.2.1]octane-3-carbonyl)-2-hydroxybenzaldehyde]"
5,60 to 600 nM,"Nc1ncccc1-c1nc2ccc(-c3ccccc3)nc2n1-c1ccc(CN2C3CCC2CN(C(=O)c2ccc(C=O)c(O)c2)C3)cc1 [Example 113, 4-(8-(4-(2-(2-Aminopyridin-3-yl)-5-phenyl-3H-imidazo[4,5-b]pyridin-3-yl)benzyl)-3,8-diazabicyclo[3.2.1]octane-3-carbonyl)-2-hydroxybenzaldehyde]"
6,60 to 600 nM,"Nc1ncccc1-c1nc2ccc(-c3ccccc3)nc2n1-c1ccc(CN2C3CCC2CN(c2ccc(C=O)c(O)c2)C3)cc1 [Example 114, 4-(8-(4-(2-(2-Aminopyridin-3-yl)-5-phenyl-3H-imidazo[4,5-b]pyridin-3-yl)benzyl)-3,8-diazabicyclo[3.2.1]octan-3-yl)-2-hydroxybenzaldehyde]"
7,15 to 60 nM,"Nc1ncccc1-c1nc2ccc(-c3ccccc3)nc2n1-c1ccc(CN2C[C@@H]3C[C@H]2CN3C(=O)c2ccc(C=O)c(O)c2)cc1 [Example 122, 4-((1S,4S)-5-(4-(2-(2-Aminopyridin-3-yl)-5-phenyl-3H-imidazo[4,5-b]pyridin-3-yl)benzyl)-2,5-diazabicyclo[2.2.1]heptane-2-carbonyl)-2-hydroxybenzaldehyde]"
8,60 to 600 nM,"Nc1ncccc1-c1nc2ccc(-c3ccccc3)nc2n1-c1ccc(CN2CC3CCC2CN3C(=O)c2ccc(C=O)c(O)c2)cc1 (centres unmarked) [Example 125, 4-(5-(4-(2-(2-aminopyridin-3-yl)-5-phenyl-3H-imidazo[4,5-b]pyridin-3-yl)benzyl)-2,5-diazabicyclo[2.2.2]octane-2-carbonyl)-2-hydroxybenzaldehyde]"
9,60 to 600 nM,"Nc1ncccc1-c1nc2ccc(-c3ccccc3)nc2n1-c1ccc(CN2CC3CCC2CN3C(=O)c2ccc(O)c(C=O)c2)cc1 (centres unmarked) [Example 126, 5-(5-(4-(2-(2-Aminopyridin-3-yl)-5-phenyl-3H-imidazo[4,5-b]pyridin-3-yl)benzyl)-2,5-diazabicyclo[2.2.2]octane-2-carbonyl)-2-hydroxybenzaldehyde]"
10,60 to 600 nM,"Nc1ncccc1-c1nc2ccc(-c3ccccc3)nc2n1-c1ccc(CN2CC3CCC2CN3c2ccc(C=O)c(O)c2)cc1 (centres unmarked) [Example 127, 4-(5-(4-(2-(2-Aminopyridin-3-yl)-5-phenyl-3H-imidazo[4,5-b]pyridin-3-yl)benzyl)-2,5-diazabicyclo[2.2.2]octan-2-yl)-2-hydroxybenzaldehyde]"
11,60 to 600 nM,"Nc1ncccc1-c1nc2ccc(-c3ccccc3)nc2n1-c1ccc(CN2C[C@@H]3CN(C(=O)c4ccc(O)c(C=O)c4)C[C@@H]3C2)cc1 [Example 131, 5-((3aR,6aS)-5-(4-(2-(2-Aminopyridin-3-yl)-5-phenyl-3H-imidazo[4,5-b]pyridin-3-yl)benzyl)octahydropyrrolo[3,4-c]pyrrole-2-carbonyl)-2-hydroxybenzaldehyde]"
12,60 to 600 nM,"Nc1ncccc1-c1nc2ccc(-c3ccccc3)nc2n1-c1ccc(CN2C[C@@H]3CN(C(=O)c4ccc(C=O)c(O)c4)C[C@@H]3C2)cc1 [Example 132, 4-((3aR,6aS)-5-(4-(2-(2-Aminopyridin-3-yl)-5-phenyl-3H-imidazo[4,5-b]pyridin-3-yl)benzyl)octahydropyrrolo[3,4-c]pyrrole-2-carbonyl)-2-hydroxybenzaldehyde]"
